Measured values taken from patent US6465465B1, “Process for the treatment of erectile dysfunction and product therefor” (Arzneimittelwerk Dresden GmbH, priority 2000, dated 2002).

Key:
phosphodiesterase 5 = target: T1, phosphodiesterase 5 (Homo sapiens, UniProt O76074); assay: PDE 5 activity in enzyme preparations from human thrombocytes; assay type: biochemical; conditions: human thrombocyte enzyme, 0.5 μM [3H]cGMP; read-out: IC50, inhibition of phosphodiesterase 5
T1 construct: The thrombocytes are lysed by ultrasound and used in the PDE 5 assay; from tissue; host or cells: human thrombocytes (platelets) from citrate-anticoagulated blood, lysed by ultrasound
Description: PDE 5 activity is determined in enzyme preparations from human thrombocytes. Human blood was anti-coagulated with citrate. By centrifuging at 700 g for 20 minutes at room temperature, the thrombocyte-rich plasma in the supernatant is separated from the erythrocytes and leukocytes. The thrombocytes are lysed by ultrasound and used in the PDE 5 assay. With a few modifications, the phosphodiesterase activity is determined by the method described by Thompson et al. (Thompson, W. J., Appleman, M. M., Assay of cyclic nucleotide phosphodiesterase and resolution of multiple molecular forms of the enzyme, Adv. Cycl. Nucl. Res. 1979, 10, 69-92). The reaction mixtures contain 50 mM of tris HCl (pH 7.4), 5.5 mM of MgCl2, the inhibitors in variable concentrations, the enzyme preparation and the fuirther components necessary for determining the individual isoenzymes PDE 5 (see below). The reaction is started by the addition of the substrate, 0.5 μM of [^3H] cGMP (approximately 6,000 CPM/test). The final volume is […]. Test substances are prepared as stock solutions in DMSO. The DMSO concentration in the reaction mixture is 1% v/v. The PDE 5 activity is not affected by this concentration of DMSO. After the reaction is started by the addition of substrate, the samples are incubated for 30 minutes at 37° C. The reaction is stopped by heating the test tubes for 2 minutes at 110° C. The samples remain for a further 10 minutes in ice. The addition of 30 μL of 5′-nucleotidase (1 mg/mL, from a Crotalus adamanteus snake poison suspension) is followed by an incubation for 10 minutes at 37° C. The samples are stopped on ice. After the addition of 400 μL of a (1:1:1) mixture of Dowex, water and ethanol, the samples are mixed well and incubated once again for 15 minutes on ice. The reaction vessels are centrifuged for 20 minutes at 3,000 g. Subsequently, 200 μL aliquots of the supernatant are transferred directly to scintillation vessels. After the addition of 3 mL of scintillator, the samples are measured in the Betacounter. The in each case nonspecific enzyme activities are determined in the presence of 100 μM of IBMX for the determination of the PDE 5 and subtracted from the test values.

human atrium tissue = assay: Influencing cAMP and cGMP levels in human atrium strips; assay type: cell-based; conditions: 1.0 μmoles/L, 10 minutes
Description: (§1) Strips of human atrium and human corpus cavernosum are incubated for 10 minutes with the test compounds at a concentration of 1.0 μmoles/L The preparations are frozen with liquid nitrogen and the resulting levels of the cyclic nucleotides are determined.

[1] = tested on: human corpus cavernosum tissue; assay: Influencing cAMP and cGMP levels in human corpus cavernosum strips; assay type: cell-based; conditions: 1.0 μmoles/L, 10 minutes
Description: as §1

[2] = tested on: human corpus cavernosum strips; assay: In vitro relaxation of human corpus cavernosum pre-contracted with noradrenalin; assay type: cell-based; conditions: organ bath
Description: Strips of human corpus cavernosum are pre-contracted in an organ bath with noradrenalin. For test compounds, the relaxation is determined as a function of the concentration.

[3] = tested on: Rat fetal lung fibroblast cells (RFL-6); assay: Reinforcement of NO donor-induced intracellular cGMP increase in rat fetal lung fibroblasts; assay type: cell-based; conditions: RFL-6 cells
Description: Rat fetal lung fibroblast cells (RFL-6) represent a suitable medium for investigating influence of the action of NO on the intracellular cGNP level (Ishii et al. 1991). The basic mechanism can be transferred to the smooth vascular musculature of the corpus cavemosum.
As a fuinction of the concentration, the inventive compounds reinforce the increase in the intracellular cGXD level induced by the NO donor S-nitroso-N-acetyl-D,L-penicillamine.

Row | IC50 (phosphodiesterase 5) | melting point | Compound | also measured
1 | 0.132 µM | – | 5-(2,6-dichlrobenzyl)-1-ethyl-8-methoxy-3-methyl-imidazol[1,5-a]-pyrido[3,2-e]pyrazinone [Example 10] | –
2 | 0.025 µM | – | 5-cyclohexyl-1-ethyl-8-methoxy-3-methyl-imidazo[1,5-a]-pyrido[3,2-e]pyrazinone [Example 1] | –
3 | 0.203 µM | 166 to 167 °C | CCc1nc(C)c2c(=O)n(Cc3ccccc3)c3ccc(OC)nc3n12 [Example 2, 5-benzyl-1-ethyl-8-methoxy-3-methyl-imidazo[1,5-a]-pyrido[3,2-e]pyrazinone] | –
4 | 0.059 µM | 186 to 187 °C | CCc1nc(C)c2c(=O)n(Cc3ccccc3F)c3ccc(OC)nc3n12 [Example 5, 1-ethyl-5-(2-fluorobenzyl)-8-methoxy-3-methyl-imidazo[1,5-a]-pyrido[3,2-e]pyrazinone] | –
5 | 0.104 µM | 156 to 158 °C | CCc1nc(C)c2c(=O)n(Cc3ccc(OC)cc3)c3ccc(OC)nc3n12 [Example 7, 1-ethyl-8-methoxy-5-(4-methoxybenzyl)-8-methoxy-3-methyl-imidazo[1,5-a]-pyrido[3,2-e]pyrazinone] | –
6 | 0.126 µM | 189 to 191 °C | CCc1nc(C)c2c(=O)n(Cc3ccc(F)cc3)c3ccc(OC)nc3n12 [Example 8] | –
7 | 0.112 µM | 201 to 202 °C | CCc1nc(C)c2c(=O)n(Cc3ccc(Cl)cc3)c3ccc(OC)nc3n12 [Example 9, 5-(4-chlorobenzyl)-1-ethyl-8-methoxy-3-methyl-imidazo[1,5-a]-pyrido[3,2-e]pyrazinone] | –
8 | 0.019 µM | 197 to 200 °C | CCc1nc(C)c2c(=O)n(Cc3c(F)cccc3Cl)c3ccc(OC)nc3n12 [Example 11, 5-(2-chloro-6-fluorobenzyl)-1-ethyl-8-methoxy-3-methyl-imidazo[1,5-a]-pyrido[3,2-e]pyrazinone] | increase of cAMP level (human atrium tissue): 11%; increase of cGMP level (human atrium tissue): 247%; increase of cAMP level [1]: 80%; increase of cGMP level [1]: 214%
9 | 0.038 µM | 177 to 180 °C | CCc1nc(C)c2c(=O)n(Cc3c(F)cccc3F)c3ccc(OC)nc3n12 [Example 12, 5-(2,6-difluorobenzyl)-1-ethyl-8-methoxy-3-methyl-imidazo[1,5-a]-pyrido[3,2-e]pyrazinone] | –
10 | 0.016 µM | 183 to 185 °C | CCc1nc(C)c2c(=O)n(Cc3c(F)ccc(F)c3F)c3ccc(OC)nc3n12 [Example 13, 1-ethyl-8-methoxy-3-methyl-5-(2,3,6-trifluorobenzyl)-imidazo[1,5-a]-pyrido[3,2-e]pyrazinone] | EC50 [2]: 0.15 µM; effectiveness relative to the nonspecific PDE inhibitor IBMX ([3]; cGMP level increase): 1000 times; increase in the intracellular cGMP level ([3]; compound at 0.10 μmoles/l, NO donor S-nitroso-N-acetyl-D,L-penicillamine): significantly induces an increase
11 | 0.008 µM | 159 to 162 °C | CCCc1nc(C)c2c(=O)n(Cc3c(F)cccc3Cl)c3ccc(OC)nc3n12 [Example 14, 5-(2-chloro-6-fluorobenzyl)-8-methoxy-3-methyl-1-propyl-imidazo[1,5-a]-pyrido[3,2-e]pyrazinone] | –
12 | 0.002 µM | 171 to 172 °C | CCCc1nc(C)c2c(=O)n(Cc3c(F)cccc3F)c3ccc(OC)nc3n12 [Example 15, 5-(2,6-difluorobenzyl)-8-methoxy-3-methyl-1-propyl-imidazo[1,5-a]-pyrido[3,2-e]pyrazinone] | –
13 | 0.005 µM | 197 to 199 °C | CCCc1nc(C)c2c(=O)n(Cc3c(F)ccc(F)c3F)c3ccc(OC)nc3n12 [Example 16, 8-methoxy-3-methyl-1-propyl-5-(2,3,6-trifluorobenzyl)-imidazo[1,5-a]-pyrido[3,2-e]pyrazinone] | –
14 | – | – | CCCc1nn(C)c2c(=O)[nH]c(-c3cc(S(=O)(=O)N4CCN(C)CC4)ccc3OCC)nc12 [sildenafil, reference compound] | increase of cAMP level (human atrium tissue): 240%; increase of cGMP level (human atrium tissue): 147%; increase of cAMP level [1]: 238%; increase of cGMP level [1]: 15%
